In ChEMBL document CHEMBL1134634, “Rapid enantiomeric quantification of an antiviral nucleoside agent (D,L-FMAU, 2'-fluoro-5-methyl-beta,D,L-arabinofurano-syluracil) by mass spectrometry” (J Med Chem, 2001):

Test system: Hepatitis B virus
Assay: Effective concentration against hepatitis B virus
Type: functional, organism-based

## Cc1cn([C@@H]2O[C@H](CO)[C@@H](O)[C@@H]2F)c(=O)[nH]c1=O [5-METHYL-2'-FLUOROARAURACIL]
  EC50: 130 nM
